ChEMBL document CHEMBL1201861, “Genomics of Drug Sensitity in Cancer screening data, Wellcome Trust Sanger Institute”
“And” between values parts separate entries of the source, which are not always exact repeats. Equal values may be shown once.

Columns and labels:
Experiment in all cases: cells
COLO-800 = format: functional, cell-based, Homo sapiens;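 note: growth inhibition of COLO-800 cells, read out with a cell viability assay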
Description: SANGER: Inhibition of human COLO-800 cell growth in a cell viability assay.

COR-L105 = format: functional, cell-based, Homo sapiens;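 note: cell growth inhibition determined with a viability assay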
Description: SANGER: Inhibition of human COR-L105 cell growth in a cell viability assay.

Calu-3 = format: functional, cell-based, Homo sapiens;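 note: growth inhibition of human Calu-3 cells, determined with a cell viability assay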
Description: SANGER: Inhibition of human Calu-3 cell growth in a cell viability assay.

DMS-114 = format: functional, cell-based, Homo sapiens
DoTc2-4510 = format: functional, cell-based, Homo sapiens
EC-GI-10 = format: functional, cell-based, Homo sapiens
Description: SANGER: Inhibition of human EC-GI-10 cell growth in a cell viability assay.

ES8 = format: functional, cell-based, Homo sapiens;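 note: growth inhibition of human ES8 cells, read out with a cell viability assay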
Description: SANGER: Inhibition of human ES8 cell growth in a cell viability assay.

EW-13 = format: functional, cell-based; conditions: Homo sapiens;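 note: growth inhibition of EW-13 cells, read out with a cell viability assay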
Description: SANGER: Inhibition of human EW-13 cell growth in a cell viability assay.

EW-3 = format: functional, cell-based; conditions: Homo sapiens;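 note: cell viability assay read-out, IC50 reflects inhibition of growth of the EW-3 cells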
Description: SANGER: Inhibition of human EW-3 cell growth in a cell viability assay.

EOL1 = format: functional, cell-based; conditions: Homo sapiens;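 note: growth inhibition of EoL-1 cells, read out by a cell viability assay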
Description: SANGER: Inhibition of human EoL-1-cell cell growth in a cell viability assay.

GT3TKB = format: functional, cell-based, Homo sapiens;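 note: growth inhibition of the cell line, read out with a cell viability assay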
Description: SANGER: Inhibition of human GT3TKB cell growth in a cell viability assay.

HCC1806 = format: functional, cell-based, Homo sapiens;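 note: growth inhibition of the cancer cell line, determined with a cell viability assay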
Description: SANGER: Inhibition of human HCC1806 cell growth in a cell viability assay.

HCC1954 = format: functional, cell-based, Homo sapiens;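 note: growth inhibition of human HCC1954 cells, read out with a cell viability assay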
Description: SANGER: Inhibition of human HCC1954 cell growth in a cell viability assay.

HCC2157 = format: functional, cell-based; conditions: Homo sapiens;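 note: growth inhibition of the cancer cell line, read out as cell viability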
Description: SANGER: Inhibition of human HCC2157 cell growth in a cell viability assay.

HT-1376 = format: functional, cell-based, Homo sapiens
Description: SANGER: Inhibition of human HT-1376 cell growth in a cell viability assay.

HuTu80 = format: functional, cell-based, Homo sapiens, HUTU-80;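 note: growth inhibition of HuTu80 human cells, determined with a cell viability readout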
Description: SANGER: Inhibition of human HUTU-80 cell growth in a cell viability assay.

KURAMOCHI = format: functional, cell-based; conditions: Homo sapiens;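 note: growth inhibition of KURAMOCHI cells, read out with a cell viability assay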
Description: SANGER: Inhibition of human KURAMOCHI cell growth in a cell viability assay.

KY821 = format: functional, cell-based; conditions: Homo sapiens;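 note: growth inhibition of human KY821 cells, read out by a cell viability assay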
KYSE-150 cell line = format: functional, cell-based, Homo sapiens;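 note: growth inhibition of human KYSE-150 cells, read out with a cell viability assay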
Description: SANGER: Inhibition of human KYSE-150 cell growth in a cell viability assay.

LAMA-84 = format: functional, cell-based; conditions: Homo sapiens;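 note: growth inhibition of LAMA-84 cells, read out with a cell viability assay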
Description: SANGER: Inhibition of human LAMA-84 cell growth in a cell viability assay.

LU-134-A = format: functional, cell-based; conditions: Homo sapiens
Description: SANGER: Inhibition of human LU-134-A cell growth in a cell viability assay.

MCF7 = format: functional, cell-based, Homo sapiens;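 note: growth inhibition of human MCF7 cells, read out with a cell viability assay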
Description: SANGER: Inhibition of human MCF7 cell growth in a cell viability assay.

MKN-28 = format: functional, cell-based, Homo sapiens;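 note: cell viability assay read-out, IC50 reflects suppression of growth of human MKN-28 cells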
NCI-H1299 = format: functional, cell-based, Homo sapiens;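 note: growth inhibition of human NCI-H1299 cells, read out by a cell viability assay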
Description: SANGER: Inhibition of human NCI-H1299 cell growth in a cell viability assay.

NCI-H1792 = format: functional, cell-based, Homo sapiens;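 note: growth inhibition of human NCI-H1792 cells, read out as cell viability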
Description: SANGER: Inhibition of human NCI-H1792 cell growth in a cell viability assay.

NCI-H1993 = format: functional, cell-based, Homo sapiens;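 note: growth inhibition of the cancer cell line, assessed with a cell viability assay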
Description: SANGER: Inhibition of human NCI-H1993 cell growth in a cell viability assay.

NCI-H2122 = format: functional, cell-based, Homo sapiens;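 note: growth inhibition of the cells, read out with a cell viability assay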
Description: SANGER: Inhibition of human NCI-H2122 cell growth in a cell viability assay.

NCI-H2347 = format: functional, cell-based, Homo sapiens;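 note: growth inhibition of the cell line, read out with a cell viability assay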
Description: SANGER: Inhibition of human NCI-H2347 cell growth in a cell viability assay.

NCI-H446 = format: functional, cell-based; conditions: Homo sapiens;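 note: growth inhibition of NCI-H446 cells determined by a cell viability assay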
Description: SANGER: Inhibition of human NCI-H446 cell growth in a cell viability assay.

OVCAR-8 = format: functional, cell-based, Homo sapiens;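 note: growth inhibition of human OVCAR-8 cells, read out by a cell viability assay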
Description: SANGER: Inhibition of human OVCAR-8 cell growth in a cell viability assay.

SJSA-1 = format: functional, cell-based, Homo sapiens;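 note: growth inhibition of human SJSA-1 cells, read out through a cell viability measurement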
Description: SANGER: Inhibition of human SJSA-1 cell growth in a cell viability assay.

SK-N-DZ = format: functional, cell-based, Homo sapiens;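 note: growth inhibition of the cancer cell line, read out through a viability assay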
Description: SANGER: Inhibition of human SK-N-DZ cell growth in a cell viability assay.

SNU-387 = format: functional, cell-based, Homo sapiens
Description: SANGER: Inhibition of human SNU-387 cell growth in a cell viability assay.

SNU-449 = format: functional, cell-based, Homo sapiens
Description: SANGER: Inhibition of human SNU-449 cell growth in a cell viability assay.

SW1573 = format: functional, cell-based, Homo sapiens;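 note: growth inhibition of SW1573 cells, read out with a cell viability assay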
Description: SANGER: Inhibition of human SW1573 cell growth in a cell viability assay.

SW684 = format: functional, cell-based, Homo sapiens;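 note: growth inhibition of human SW684 cells, measured by a cell viability assay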
Description: SANGER: Inhibition of human SW684 cell growth in a cell viability assay.

SW780 = format: functional, cell-based, Homo sapiens;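 note: growth inhibition of the cells, read out with a cell viability assay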
697 = format: functional, cell-based; conditions: Homo sapiens
Description: SANGER: Inhibition of human 697 cell growth in a cell viability assay.

A2058 = format: functional, cell-based; conditions: Homo sapiens;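 note: reduction of A2058 cell growth, read out with a viability assay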
Description: SANGER: Inhibition of human A2058 cell growth in a cell viability assay.

A-375 = format: functional, cell-based, Homo sapiens;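 note: growth inhibition of A375 cells, read out with a cell viability assay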
Description: SANGER: Inhibition of human A375 cell growth in a cell viability assay.

A673 = format: functional, cell-based, Homo sapiens;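 note: growth inhibition of human A673 cells, read out through a cell viability assay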
Description: SANGER: Inhibition of human A673 cell growth in a cell viability assay.

AM-38 = format: functional, cell-based, Homo sapiens;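 note: growth inhibition of AM-38 cells of human origin, read out by a cell viability assay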
Description: SANGER: Inhibition of human AM-38 cell growth in a cell viability assay.

AN3-CA = format: functional, cell-based; conditions: Homo sapiens;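 note: growth inhibition of human AN3-CA cells measured by a cell viability assay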
Description: SANGER: Inhibition of human AN3-CA cell growth in a cell viability assay.

BXPC-3 = format: functional, cell-based, Homo sapiens;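 note: growth inhibition of human BxPC-3 cells, read out by a cell viability assay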
Description: SANGER: Inhibition of human BxPC-3 cell growth in a cell viability assay.

C3A = format: functional, cell-based, Homo sapiens;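 note: growth inhibition of C3A human cells, quantified with a cell viability readout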
Description: SANGER: Inhibition of human C3A cell growth in a cell viability assay.

CAL-33 = format: functional, cell-based, Homo sapiens;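 note: growth inhibition of CAL-33 cells, read out with a cell viability assay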
Description: SANGER: Inhibition of human CAL-33 cell growth in a cell viability assay.

CAL-39 = format: functional, cell-based, Homo sapiens;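 note: cell viability assay measuring growth inhibition of CAL-39 cells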
Description: SANGER: Inhibition of human CAL-39 cell growth in a cell viability assay.

TE-5 = format: functional, cell-based, Homo sapiens;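 note: inhibition of cell growth, read out by a cell viability assay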
Description: SANGER: Inhibition of human TE-5 cell growth in a cell viability assay.

TGBC24TKB = format: functional, cell-based, Homo sapiens;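 note: growth inhibition of human TGBC24TKB cells, read out with a cell viability assay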
Description: SANGER: Inhibition of human TGBC24TKB cell growth in a cell viability assay.

UMC-11 = format: functional, cell-based, Homo sapiens;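 note: growth inhibition of UMC-11 cells, read out with a cell viability assay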
Description: SANGER: Inhibition of human UMC-11 cell growth in a cell viability assay.

CAPAN-1 = format: functional, cell-based, Homo sapiens;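 note: growth suppression of CAPAN-1 cells, read out by a cell viability assay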
Description: SANGER: Inhibition of human CAPAN-1 cell growth in a cell viability assay.

CN(c1ncccc1CNc1nc(Nc2ccc3c(c2)CC(=O)N3)ncc1C(F)(F)F)S(C)(=O)=O [PF-00562271]
IC50 (COLO-800; Homo sapiens, COLO-800): > 2.56 µM
IC50 (COR-L105; Homo sapiens, COR-L105): > 2.56 µM
IC50 (Calu-3; Homo sapiens, Calu-3): > 2.56 µM
IC50 (DMS-114; Homo sapiens, DMS-114): > 2.56 µM
IC50 (DoTc2-4510; Homo sapiens, DoTc2-4510): > 2.56 µM
IC50 (EC-GI-10; Homo sapiens, EC-GI-10): > 2.56 µM
IC50 (ES8; Homo sapiens, ES8): > 2.56 µM
IC50 (EW-13): 1.63 µM
IC50 (EW-3): > 2.56 µM
IC50 (EOL1): > 2.56 µM
IC50 (GT3TKB; Homo sapiens, GT3TKB): > 2.56 µM
IC50 (HCC1806; Homo sapiens, HCC1806): > 2.56 µM
IC50 (HCC1954; Homo sapiens, HCC1954): > 2.56 µM
IC50 (HCC2157): > 2.56 µM
IC50 (HT-1376; Homo sapiens, HT-1376): > 2.56 µM
IC50 (HuTu80; Homo sapiens, HuTu80): 1.45 µM
IC50 (KURAMOCHI): > 2.56 µM
IC50 (KY821): > 2.56 µM
IC50 (KYSE-150 cell line; Homo sapiens, KYSE-150): 1.35 µM
IC50 (LAMA-84): > 2.56 µM
IC50 (LU-134-A): > 2.56 µM
IC50 (MCF7; Homo sapiens, MCF7): > 2.56 µM
IC50 (MKN-28; Homo sapiens, MKN-28): > 2.56 µM
IC50 (NCI-H1299; Homo sapiens, NCI-H1299): > 2.56 µM
IC50 (NCI-H1792; Homo sapiens, NCI-H1792): > 2.56 µM
IC50 (NCI-H1993; Homo sapiens, NCI-H1993): > 2.56 µM
IC50 (NCI-H2122; Homo sapiens, NCI-H2122): > 2.56 µM
IC50 (NCI-H2347; Homo sapiens, NCI-H2347): > 2.56 µM
IC50 (NCI-H446): > 2.56 µM
IC50 (OVCAR-8; Homo sapiens, OVCAR-8): > 2.56 µM
IC50 (SJSA-1; Homo sapiens, SJSA-1): > 2.56 µM
IC50 (SK-N-DZ; Homo sapiens, SK-N-DZ): > 2.56 µM
IC50 (SNU-387; Homo sapiens, SNU-387): 2.53 µM
IC50 (SNU-449; Homo sapiens, SNU-449): > 2.56 µM
IC50 (SW1573; Homo sapiens, SW1573): > 2.56 µM
IC50 (SW684; Homo sapiens, SW684): > 2.56 µM
IC50 (SW780; Homo sapiens, SW780): > 2.56 µM
IC50 697: > 2.56 µM
IC50 (A2058): > 2.56 µM
IC50 (A-375; Homo sapiens, A-375): > 2.56 µM
IC50 (A673; Homo sapiens, A673): > 2.56 µM
IC50 (AM-38; Homo sapiens, AM-38): > 2.56 µM
IC50 (AN3-CA): 1.22 µM
IC50 (BXPC-3; Homo sapiens, BXPC-3): 2.35 µM
IC50 (C3A; Homo sapiens, C3A): > 2.56 µM
IC50 (CAL-33; Homo sapiens, CAL-33): 1.13 µM
IC50 (CAL-39; Homo sapiens, CAL-39): 2.42 µM
IC50 (TE-5; Homo sapiens, TE-5): > 2.56 µM
IC50 (TGBC24TKB; Homo sapiens, TGBC24TKB): > 2.56 µM
IC50 (UMC-11; Homo sapiens, UMC-11): > 2.56 µM
IC50 (CAPAN-1; Homo sapiens, CAPAN-1): > 2.56 µM

Cc1cc([C@@H](C)Nc2ccccc2C(=O)O)c2nc(N3CCOCC3)cc(=O)n2c1 [AZD-6482]
IC50 (COLO-800; colo-800): > 5.12 µM
IC50 (COR-L105; cor-l105): > 5.12 µM
IC50 (Calu-3; calu-3): 3.44 µM and > 5.12 µM
IC50 (DMS-114; dms-114): > 5.12 µM
IC50 (DoTc2-4510; dotc2-4510): > 5.12 µM
IC50 (EC-GI-10; ec-gi-10): > 5.12 µM
IC50 (ES8; es8): > 5.12 µM
IC50 (EW-13): > 5.12 µM
IC50 (EW-3): > 5.12 µM
IC50 (EOL1): > 5.12 µM
IC50 (GT3TKB; gt3tkb): > 5.12 µM
IC50 (HCC1806; hcc1806): > 5.12 µM
IC50 (HCC1954; Homo sapiens, HCC1954): 5.06 µM
IC50 (HCC1954; hcc1954): > 5.12 µM
IC50 (HCC2157): 3.96 µM
IC50 (HT-1376; ht-1376): > 5.12 µM
IC50 (HuTu80; Homo sapiens, HuTu80): > 5.12 µM
IC50 (HuTu80; hutu-80): > 5.12 µM
IC50 (KY821): > 5.12 µM
IC50 (KYSE-150 cell line; kyse-150): > 5.12 µM
IC50 (LAMA-84): > 5.12 µM
IC50 (LU-134-A): > 5.12 µM
IC50 (MCF7; mcf7): > 5.12 µM and 3.35 µM
IC50 (MKN-28; mkn-28): > 5.12 µM
IC50 (NCI-H1299; nci-h1299): 3.67 µM and > 5.12 µM
IC50 (NCI-H1792; nci-h1792): > 5.12 µM
IC50 (NCI-H1993; nci-h1993): > 5.12 µM
IC50 (NCI-H2122; nci-h2122): > 5.12 µM
IC50 (NCI-H2347; Homo sapiens, NCI-H2347): > 5.12 µM
IC50 (NCI-H2347; nci-h2347): > 5.12 µM
IC50 (NCI-H446): > 5.12 µM
IC50 (OVCAR-8; ovcar-8): > 5.12 µM
IC50 (SJSA-1; Homo sapiens, SJSA-1): > 5.12 µM
IC50 (SJSA-1; sjsa-1): > 5.12 µM
IC50 (SK-N-DZ; sk-n-dz): > 5.12 µM and 2.32 µM
IC50 (SNU-387; snu-387): > 5.12 µM
IC50 (SNU-449; Homo sapiens, SNU-449): > 5.12 µM
IC50 (SNU-449; snu-449): > 5.12 µM
IC50 (SW1573; sw1573): > 5.12 µM
IC50 (SW684; Homo sapiens, SW684): > 5.12 µM
IC50 (SW684; sw684): > 5.12 µM
IC50 (SW780; sw780): > 5.12 µM
IC50 697: 4.6 µM
IC50 (A2058): > 5.12 µM
IC50 (A-375; a-375): > 5.12 µM
IC50 (A673; Homo sapiens, A673): > 5.12 µM
IC50 (A673; a673): > 5.12 µM
IC50 (AM-38; am-38): > 5.12 µM
IC50 (AN3-CA): 3.59 µM
IC50 (BXPC-3; bxpc-3): > 5.12 µM and 3.45 µM
IC50 (C3A; c3a): > 5.12 µM
IC50 (CAL-33; Homo sapiens, CAL-33): 1.49 µM
IC50 (CAL-33; cal-33): 2.55 µM
IC50 (CAL-39; cal-39): 2 µM and > 5.12 µM
IC50 (TE-5; Homo sapiens, TE-5): > 5.12 µM
IC50 (TE-5; te-5): > 5.12 µM
IC50 (TGBC24TKB; tgbc24tkb): > 5.12 µM
IC50 (UMC-11; Homo sapiens, UMC-11): > 5.12 µM
IC50 (UMC-11; umc-11): > 5.12 µM
IC50 (CAPAN-1; capan-1): > 5.12 µM

CN(C)C/C=C/C(=O)Nc1cc2c(Nc3ccc(F)c(Cl)c3)ncnc2cc1O[C@H]1CCOC1 [AFATINIB]
IC50 (COLO-800; Homo sapiens, COLO-800): > 0.5 µM
IC50 (COR-L105; Homo sapiens, COR-L105): 0.211 µM
IC50 (Calu-3; Homo sapiens, Calu-3): > 0.5 µM
IC50 (DMS-114; Homo sapiens, DMS-114): > 0.5 µM
IC50 (DoTc2-4510; Homo sapiens, DoTc2-4510): 0.322 µM
IC50 (EC-GI-10; Homo sapiens, EC-GI-10): 0.0591 µM
IC50 (ES8; Homo sapiens, ES8): > 0.5 µM
IC50 (EW-13): > 0.5 µM
IC50 (EW-3): > 0.5 µM
IC50 (EOL1): 0.269 µM
IC50 (GT3TKB; Homo sapiens, GT3TKB): > 0.5 µM
IC50 (HCC1806; Homo sapiens, HCC1806): > 0.5 µM
IC50 (HCC1954; Homo sapiens, HCC1954): > 0.5 µM
IC50 (HT-1376; Homo sapiens, HT-1376): > 0.5 µM
IC50 (HuTu80; Homo sapiens, HuTu80): > 0.5 µM
IC50 (KURAMOCHI): > 0.5 µM
IC50 (KY821): 0.0206 µM
IC50 (KYSE-150 cell line; Homo sapiens, KYSE-150): > 0.5 µM
IC50 (LAMA-84): > 0.5 µM
IC50 (LU-134-A): > 0.5 µM
IC50 (MCF7; Homo sapiens, MCF7): > 0.5 µM
IC50 (MKN-28; Homo sapiens, MKN-28): > 0.5 µM
IC50 (NCI-H1299; Homo sapiens, NCI-H1299): > 0.5 µM
IC50 (NCI-H1792; Homo sapiens, NCI-H1792): > 0.5 µM
IC50 (NCI-H1993; Homo sapiens, NCI-H1993): > 0.5 µM
IC50 (NCI-H2122; Homo sapiens, NCI-H2122): > 0.5 µM
IC50 (NCI-H2347; Homo sapiens, NCI-H2347): > 0.5 µM
IC50 (NCI-H446): > 0.5 µM
IC50 (OVCAR-8; Homo sapiens, OVCAR-8): > 0.5 µM
IC50 (SJSA-1; Homo sapiens, SJSA-1): > 0.5 µM
IC50 (SK-N-DZ; Homo sapiens, SK-N-DZ): > 0.5 µM
IC50 (SNU-387; Homo sapiens, SNU-387): > 0.5 µM
IC50 (SNU-449; Homo sapiens, SNU-449): > 0.5 µM
IC50 (SW1573; Homo sapiens, SW1573): > 0.5 µM
IC50 (SW684; Homo sapiens, SW684): > 0.5 µM
IC50 (SW780; Homo sapiens, SW780): > 0.5 µM
IC50 697: > 0.5 µM
IC50 (A2058): > 0.5 µM
IC50 (A-375; Homo sapiens, A-375): > 0.5 µM
IC50 (A673; Homo sapiens, A673): > 0.5 µM
IC50 (AM-38; Homo sapiens, AM-38): > 0.5 µM
IC50 (AN3-CA): > 0.5 µM
IC50 (BXPC-3; Homo sapiens, BXPC-3): > 0.5 µM
IC50 (C3A; Homo sapiens, C3A): > 0.5 µM
IC50 (CAL-33; Homo sapiens, CAL-33): 0.202 µM
IC50 (CAL-39; Homo sapiens, CAL-39): 0.118 µM
IC50 (TE-5; Homo sapiens, TE-5): > 0.5 µM
IC50 (TGBC24TKB; Homo sapiens, TGBC24TKB): > 0.5 µM
IC50 (UMC-11; Homo sapiens, UMC-11): > 0.5 µM
IC50 (CAPAN-1; Homo sapiens, CAPAN-1): > 0.5 µM
